# Assay results reported in patent US20100304409A1, “METHOD FOR DETECTING PREMATURE SENESCENCE IN TUMOR CELLS AND A KIT FOR DETECTING PREMATURE SENESCENCE IN TUMOR CELLS” (KOREA INSTITUTE OF RADIOLOGICAL & MEDICAL SCIENCES, priority 2009, published 2010).
# Columns and labels:
# Format in all cases: cell-based
# CD (cathepsin D) [1] = assay: Western blot analysis of CD level, H460
# Description: (§1) The breast cancer cell line (MCF7) of Section 1-1, taken 4 days after irradiation exposure was applied to the cells, was washed with PBS, and the cell sample was subjected to protein extraction using a cell lysis buffer (50 mM Tri-HCl, 1% NP-40, 0.25% sodium deoxycholate, 150 mM NaCl, 1 mM PMSF, 50 mM NaF, 0.2 mM Na3VO4, 10 g/mL aprotinin, and 2 g/mL leupeptin). The extracted protein was centrifuged at 11,000 rpm for 10 min. The supernatant was collected and subjected to quantitative analysis using Bradford protein assay (Bradford, M., Anal. Biochem. 72:248-254 (1976)). […]
# (§2) The procedure was performed in the same manner as in Section 1-6 of Example 1, except that the cell line with treatment of doxorubicin at a high dose and the cell line with treatment of doxorubicin at a low dose, each of which prepared in Section 4-1, were used. In order to confirm the occurrence of apoptosis, a level of poly(ADP-ribose) polymerase (PARP) serving as an apoptosis biomarker was detected according to Western blot analysis as in Section 1-6 of Example 1, except that polyclonal anti-PARP antibodies (Cell Signaling Technology, Mass., USA, Cat #9541) were used as primary antibodies. […]
# [2] = tested on: breast cancer cell line (MCF7); assay: Microscopic examination of cell morphology, MCF7; conditions: for cell morphology: time course 0-96 hours
# Description: In order to confirm premature senescence, characteristic morphological changes of cells in the control group and the breast cancer cell line 4 days after irradiation exposure thereof, each of which prepared in Section 1-1, were examined under a microscope (ECLIPSE TE300, Nikon).
# In order to ascertain doxorubicin-induced senescence or apoptosis of a tumor cell line, the procedure was carried out in the same manner as in Section 1-2 of Example 1, except that the experiment was conducted according to a time-course schedule (0, 16, 24, 48, and 96 hours) using the cell line of Section 4-1.
# Morphological changes of cells in the control group and the tamoxifen-treated group of Section 8-1 were examined under a microscope (ECLIPSE TE300, Nikon).
# [3] = tested on: eEF1A1 (eukaryotic elongation factor 1 alpha 1); assay: Western blot analysis of eEF1A1 level, H460
# Description: as §1, §2
# [4] = tested on: eEF1A1 (eukaryotic elongation factor 1 alpha 1); assay: Western blot analysis of eEF1A1 level, MCF7
# Description: (§3) The breast cancer cell line (MCF7) of Section 1-1, taken 4 days after irradiation exposure was applied to the cells, was washed with PBS, and the cell sample was subjected to protein extraction using a cell lysis buffer (50 mM Tri-HCl, 1% NP-40, 0.25% sodium deoxycholate, 150 mM NaCl, 1 mM PMSF, 50 mM NaF, 0.2 mM Na3VO4, 10 g/mL aprotinin, and 2 g/mL leupeptin). The extracted protein was centrifuged at 11,000 rpm for 10 min. The supernatant was collected and subjected to quantitative analysis using Bradford protein assay (Bradford, M., Anal. Biochem. 72:248-254 (1976)). 20 μg of the protein was added to 2× SDS loading buffer (60 mm Tris-Cl (pH 6.8), 25% glycerol, 2% SDS, 14.4 mM mercaptoethanol, and 0.1% bromophenol blue), and the mixture was heated at 95 for 5 min and subjected to electrophoresis on 8% SDS polyacrylamide gel at 80V for 2 hours. After the electrophoresis was complete, the separated protein was transferred to a nitrocellulose membrane (Whatman). The protein-transferred membrane was placed in a PBS solution containing 5% nonfat dry milk, and allowed to stand at room temperature for 1 hour to be blocked. Primary antibodies diluted to 1:1000 were added thereto, followed by reaction at 4 for 16 hours. The primary antibodies were polyclonal anti-eEF1A1 antibodies (Abcam, Mass., USA, Cat # ab37969 ) and anti-CD antibodies (Santa Cruz Biotechnology, Calif., USA, Cat # SC-6494 ). The secondary antibodies were horseradish peroxidase-conjugated anti-rabbit antibodies (GE healthcare, Backinghanshire, UK, Cat # NA934V). In addition, an enhanced chemiluminescence (ECL) reagent (Amersham Biosciences, Piscataway, N.J.) was used for confirmation of the reaction. Actin was used as an internal positive control, and primary antibodies were anti-actin antibodies (Santa Cruz Biotechnology, Calif., USA, Cat # SC-1616).
# (§4) The signal intensity was scanned with HP Scanjet 2400 (Hewlett-Packard Company, Palo Alto, Calif., USA) and analyzed with ImageJ Program (http://rsb.info.nih.gov/ij/).
# (§5) The procedure was performed in the same manner as in Section 1-6 of Example 1, except that the cell line with treatment of doxorubicin at a high dose and the cell line with treatment of doxorubicin at a low dose, each of which prepared in Section 4-1, were used. In order to confirm the occurrence of apoptosis, a level of poly(ADP-ribose) polymerase (PARP) serving as an apoptosis biomarker was detected according to Western blot analysis as in Section 1-6 of Example 1, except that polyclonal anti-PARP antibodies (Cell Signaling Technology, Mass., USA, Cat #9541) were used as primary antibodies.
# (§6) The procedure was performed in the same manner as in Section 1-6 of Example 1, except that the cell line prepared in Section 6-1 was used.
# (§7) P-pRb and CDK2 were used as markers of G1/S phase transition arrest. Protein levels were confirmed by Western blot analysis in the same manner as in Section 1-6 of Example 1, except that primary antibodies directed against P-pRb were Phosphoro-pRb antibodies (Cell Signaling Technology, Danvers, Mass., Cat #9308), and primary antibodies directed against CDK2 were anti-CDK2 antibodies (Santa Cruze Biotechnology, Calif., USA, Cat #SC-163).
# (§8) The procedure was performed in the same manner as in Section 1-6 of Example 1, except that the cell line prepared in Section 8-1 was used. In order to detect changes in levels of LC3-II which is an autophagy biomarker, anti-LC3-II antibodies (Sigma, Mo., USA, Cat #L8919) were used as primary antibodies directed against LC3-II.
# [5] = tested on: lung cancer cell line H460; assay: Microscopic examination of cell morphology, H460; conditions: 96 hours
# Description: In order to ascertain doxorubicin-induced senescence or apoptosis of a tumor cell line, the procedure was carried out in the same manner as in Section 1-2 of Example 1, except that the experiment was conducted 96 hours after treatment of doxorubicin on the cell line of Section 5-1.
# CD (cathepsin D) [6] = assay: Western blot analysis of CD level, MCF7
# Description: as §3, §4, §5, §6, §7, §8
# [7] = tested on: breast cancer cell line (MCF7); assay: Senescence-associated β-galactosidase activity staining, MCF7
# Description: The cells were washed twice with PBS and fixed with 3% formaldehyde at room temperature for 3 to 5 min. The fixed cells were washed once again with PBS, and 5 mL of a β-galactosidase activity staining solution (1 mg/mL X-Gal, 40 mM citric acid/sodium phosphate (pH 6.0), 5 mM potassium ferrocyanide, 5 mM potassium ferricyanide, 150 mM sodium chloride, and 2 mM magnesium chloride) was added thereto, followed by reaction in an incubator at 37 for 12 to 16 hours. During the reaction, the cells were cultured under light-shielding conditions by wrapping of the culture dish in silver foil.
# [8] = tested on: poly(ADP-ribose) polymerase (PARP); assay: Western blot analysis of PARP cleavage (apoptosis biomarker), MCF7; conditions: MCF7, high dose (10 μg/mL)
# Description: as §1, §5
# LC3-II = assay: Western blot analysis of LC3-II (autophagy biomarker), MCF7; conditions: MCF7, tamoxifen 10 μmol/L for 2 days
# Description: as §3, with “The primary antibodies were polyclonal anti-eEF1A1 antibodies (Abcam, Mass., USA, Cat # ab37969 ) and anti-CD antibodies (Santa Cruz Biotechnology, Calif., USA, Cat # SC-6494 ). The secondary antibodies were horseradish peroxidase-conjugated anti-rabbit antibodies (GE healthcare, Backinghanshire, UK, Cat # NA934V). In addition, an enhanced chemiluminescence (ECL) reagent (Amersham Biosciences, Piscataway, N.J.) was used for confirmation of the reaction. Actin was used as an internal positive control, and primary antibodies were anti-actin antibodies (Santa Cruz Biotechnology, Calif., USA, Cat # SC-1616).” left out
# [9] = tested on: P-pRb (phosphorylated retinoblastoma); assay: Western blot analysis of P-pRb (G1/S arrest marker), MCF7; conditions: MCF7, double thymidine treatment (15 h, 0.5 mg/mL, 8 h interval), arrested
# Description: as §3, with “The primary antibodies were polyclonal anti-eEF1A1 antibodies (Abcam, Mass., USA, Cat # ab37969 ) and anti-CD antibodies (Santa Cruz Biotechnology, Calif., USA, Cat # SC-6494 ). The secondary antibodies were horseradish peroxidase-conjugated anti-rabbit antibodies (GE healthcare, Backinghanshire, UK, Cat # NA934V). In addition, an enhanced chemiluminescence (ECL) reagent (Amersham Biosciences, Piscataway, N.J.) was used for confirmation of the reaction. Actin was used as an internal positive control, and primary antibodies were anti-actin antibodies (Santa Cruz Biotechnology, Calif., USA, Cat # SC-1616).” left out
# CDK2 = assay: Western blot analysis of CDK2 (G1/S arrest marker), MCF7; conditions: MCF7, double thymidine treatment (15 h, 0.5 mg/mL, 8 h interval), arrested
# Description: as §3, with “The primary antibodies were polyclonal anti-eEF1A1 antibodies (Abcam, Mass., USA, Cat # ab37969 ) and anti-CD antibodies (Santa Cruz Biotechnology, Calif., USA, Cat # SC-6494 ). The secondary antibodies were horseradish peroxidase-conjugated anti-rabbit antibodies (GE healthcare, Backinghanshire, UK, Cat # NA934V). In addition, an enhanced chemiluminescence (ECL) reagent (Amersham Biosciences, Piscataway, N.J.) was used for confirmation of the reaction. Actin was used as an internal positive control, and primary antibodies were anti-actin antibodies (Santa Cruz Biotechnology, Calif., USA, Cat # SC-1616).” left out
# [10] = H460, high-dose doxorubicin (10 μg/mL), apoptosis
# [11] = H460, low-dose doxorubicin (50 ng/mL)
# [12] = MCF7, Day 4, Day 0=1, ImageJ scanning, dose not restated (senescence, low dose implied)
# [13] = MCF7, high dose (10 μg/mL), apoptotic conditions
# [14] = MCF7, low-dose doxorubicin (50 ng/mL)
# [15] = MCF7, camptothecin 40 nM, etoposide 30 μM
# [16] = MCF7, camptothecin 40 nM, etoposide 30 μM, control group (Con)=1
# [17] = MCF7, tamoxifen 10 μmol/L for 2 days, autophagy
# [18] = MCF7, double thymidine block, arrested at G1/S
# [19] = MCF7, released from DTB, additional 48 h
structure (smiles),measurement,setting,value
COc1cccc2c1C(=O)c1c(O)c3c(c(O)c1C2=O)C[C@@](O)(C(=O)CO)C[C@@H]3O[C@H]1C[C@H](N)[C@H](O)[C@H](C)O1 [doxorubicin],level of CD (Western blot),CD (cathepsin D) [1]; [10],no changes
same,level of CD (Western blot),CD (cathepsin D) [1]; [11],increases
same,cell morphology,"[2]; MCF7, high dose (10 μg/mL)",apoptosis-specific morphological changes
same,cell morphology,"[2]; MCF7, low dose (50 ng/mL)",senescence-specific morphological changes
same,level of eEF1A1 (Western blot),[3]; [10],no changes
same,level of eEF1A1 (Western blot),[3]; [11],decreases
same,"eEF1A1 band signal intensity, relative",[4]; [12],0.53
same,protein level of eEF1A1 (Western blot),[4]; [13],remained unaltered
same,level of eEF1A1 (Western blot),[4]; [14],decreases
same,cell morphology,"[5]; H460, high dose (10 μg/mL)",apoptosis-specific morphological changes
same,cell morphology,"[5]; H460, low dose (50 ng/mL)",senescence-specific morphological changes
same,"CD band signal intensity, relative",CD (cathepsin D) [6]; [12],2.45
same,protein level of CD (Western blot),CD (cathepsin D) [6]; [13],gradually decreased
same,level of CD (Western blot),CD (cathepsin D) [6]; [14],increases
same,SA-β-gal staining,"[7]; MCF7, 4 days after treatment of doxorubicin (50 ng/mL)",positive SA-β-gal staining
same,PARP cleavage (apoptotic marker),[8],induced
CC[C@@]1(O)C(=O)OCc2c1cc1n(c2=O)Cc2cc3ccccc3nc2-1 [camptothecin],level of eEF1A1 (Western blot),[4]; [15],decreases
same,"eEF1A1 band signal intensity, relative",[4]; [16],0.73
same,level of CD (Western blot),CD (cathepsin D) [6]; [15],increases
same,"CD band signal intensity, relative",CD (cathepsin D) [6]; [16],7.46
same,senescence-associated β-galactosidase activity staining,"[7]; MCF7, camptothecin 40 nM, etoposide 30 μM, versus control group",exhibited characteristics of premature senescence
CC/C(=C(\c1ccccc1)c1ccc(OCCN(C)C)cc1)c1ccccc1 [tamoxifen],cell morphology (autophagy),"[2]; MCF7, tamoxifen 10 μmol/L for 2 days",occurrence of autophagy
same,level of LC3-II (Western blot),LC3-II,increased level
same,level of eEF1A1 (Western blot),[4]; [17],decreased
same,level of CD (Western blot),CD (cathepsin D) [6]; [17],decreased
COc1cc([C@@H]2c3cc4c(cc3[C@@H](O[C@@H]3O[C@@H]5CO[C@@H](C)O[C@H]5[C@H](O)[C@H]3O)[C@H]3COC(=O)[C@H]23)OCO4)cc(OC)c1O [etoposide],level of eEF1A1 (Western blot),[4]; [15],decreases
same,level of CD (Western blot),CD (cathepsin D) [6]; [15],increases
"Cc1cn([C@H]2C[C@H](O)[C@@H](CO)O2)c(=O)[nH]c1=O [DTB, thymidine]",protein level of eEF1A1 (Western blot),[4]; [18],No significant alteration
same,eEF1A1 level (Western blot),[4]; [19],did not exhibit any alteration
same,phosphorylated pRb level (Western blot),[9],decrease
same,protein level of CD (Western blot),CD (cathepsin D) [6]; [18],No significant alteration
same,CD level (Western blot),CD (cathepsin D) [6]; [19],did not exhibit any alteration
same,CDK2 level (Western blot),CDK2,accumulation
